According to patent US10925856B2, “Methods and compositions involving bucindolol for the treatment of atrial fibrillation” (priority 2018, dated 2021):

How the values were obtained:
[1] = in vivo; cited from earlier work
[2] = Systolic blood pressure and heart rate by scheduled visit; format: in vivo, human
Description: Block is defined as the first of any of the following: 1) 3rd degree heart block (complete heart block); 2) any 2nd degree heart block with the presence of symptoms attributable to, and temporally correlated with the occurrence of heart block which include any of the following: Near-fainting or fainting (syncope)/Dizziness; Weakness or Fatigue; Shortness of breath; Chest pain; or 3) 2nd or 3rd degree heart block requiring implantation of a permanent pacemaker (with or without defibrillator). • Data source: • CVEVENT and AE eCRF forms. • Overall incidence and severity of treatment-emergent AEs/SAEs over time during the Total Study Period. Also events associated with device implantation. […] The AEs of special interest will be tabulated according to the following characteristics. • Development of treatment-emergent neoplastic conditions. • Progression or worsening of pre-study neoplastic conditions. • Progression or worsening of treatment-emergent neoplastic conditions. • Data source: • AE, NEOPLHX and NEOPLAS eCRF forms. • Clinical Chemistry and Hematology. • Visit collection: screen, start of follow-up Week 0 (protocol versions 1 and 2), Week 4 (protocol versions 3 and 4), Week 12 (protocol versions 3 and 4), Week 24, every 24 weeks during extension, end of treatment and end of study. […] Randomization Visit measurement prior to first dose will serve as the baseline. Will be analyzed at Week 0, 4, 12 and 24 visits as well as end of treatment and end of study. • Change from baseline to each analysis visit will be calculated and analyzed with descriptive statistics. • The numbers and percentages of patients with QTc increase from baseline exceeding 60 ms at any time point during the study. • Data source: • ECG eCRF form. • Vital signs and weight (data source: VITALS eCRF form). • Measured at every in-clinic visit. Randomization Visit measurement prior to first dose will serve as the baseline. Will be analyzed at Week 0, 4, 12 and 24 visits as well as end of treatment and end of study. • Change from baseline to each analysis visit will be calculated and analyzed with descriptive statistics. • Data source: • VITALS eCRF form. • Proportion of patients attaining target study drug dose during the Drug Titration Period. Will be calculated for all patients, those receiving β-blocker therapy prior to randomization and those not previously receiving β-blocker therapy. • Data Sources: • VISREC and DRUGLOG eCRF forms.

plasma norepinephrine = experiment: Plasma norepinephrine (HPLC with electrochemical detection); details: for Norepinephrine, ΔWeek 12 Mean ± SEM / Norepinephrine, ΔWeek 12 Median / Norepinephrine, ΔWeek 24 Mean ± SEM / Norepinephrine, ΔWeek 24 Median: change from baseline
[3] = Europe excluding Hungary (n = 48)

In the case of `COCCc1ccc(OCC(O)CNC(C)C)cc1` (stereo not shown) [metoprolol, metoprolol succinate, reference compound], the Bioavailability [1] is listed as “approximately 50%”, the Heart rate reduction ([2]; 4, 12 and 24 weeks) is listed as “greater heart rate reduction” and the “Heart Rate, Baseline Mean ± SEM” value ([2]; in vivo) is listed as 76.0 ± 1.5 bpm. The “Heart Rate, Baseline Min, Max” value ([2]; in vivo) was 43.0, 119, the “Systolic Blood Pressure, Baseline Mean ± SEM” value ([2]; in vivo) was 121.8 ± 1.4 mmHg and the “Systolic Blood Pressure, Baseline Min, Max” value ([2]; in vivo) was 90.0, 149. The “Plasma norepinephrine, Week 4 Mean” value (plasma norepinephrine; Canada) was 613 pg/mL, the “Plasma norepinephrine, Week 4 Median” value (plasma norepinephrine; Canada) was 605 pg/mL and the “Plasma norepinephrine, change from baseline to Week 4, Mean ±SEM” value (“Plasma norepinephrine, change … Mean ±SEM” below) (plasma norepinephrine; Canada) was -97 pg/mL. For the same molecule, the “Plasma norepinephrine, change from baseline to Week 4, Median” value (shortened to “Plasma norepinephrine, change … Median”) (plasma norepinephrine; Canada) was -59 pg/mL, the “Norepinephrine, Baseline Mean ± SD” value (plasma norepinephrine; Canada (n = 59)) was 674 ± 429 pg/mL and the “Norepinephrine, Baseline Median” value (plasma norepinephrine; Canada (n = 59)) was 541 pg/mL. For the same molecule, the “Norepinephrine, Week 12 Mean ± SD” value (plasma norepinephrine; Canada (n = 59)) was 577 ± 273 pg/mL, the “Norepinephrine, Week 12 Median” value (plasma norepinephrine; Canada (n = 59)) was 563 pg/mL and the “Norepinephrine, Week 24 Mean ± SD” value (plasma norepinephrine; Canada (n = 59)) was 722 ± 303 pg/mL. For the same molecule, the “Norepinephrine, Week 24 Median” value (plasma norepinephrine; Canada (n = 59)) was 690 pg/mL, the “Change in NE at Week 4, median (Q1, Q3)” value (plasma norepinephrine; Entire Cohort) was −10 (198,121) pg/ml and the “Plasma norepinephrine, Week 4 Mean” value (plasma norepinephrine; Entire Cohort) was 617 pg/mL. For the same molecule, the “Plasma norepinephrine, Week 4 Median” value (plasma norepinephrine; Entire Cohort) was 570 pg/mL, the “Plasma norepinephrine, change … Mean ±SEM” value (plasma norepinephrine; Entire Cohort) was 36 ± 32 pg/mL and the “Plasma norepinephrine, change … Median” value (plasma norepinephrine; Entire Cohort) was -10 pg/mL. For the same molecule, the “Norepinephrine, Baseline Mean ± SD” value (plasma norepinephrine; Entire Cohort (n = 267)) was 664 ± 359 pg/mL, the “Norepinephrine, Baseline Median” value (plasma norepinephrine; Entire Cohort (n = 267)) was 590 pg/mL and the “Norepinephrine, Week 12 Mean ± SD” value (plasma norepinephrine; Entire Cohort (n = 267)) was 605 ± 266 pg/mL. The “Norepinephrine, Week 12 Median” value (plasma norepinephrine; Entire Cohort (n = 267)) was 566 pg/mL, the “Norepinephrine, Week 24 Mean ± SD” value (plasma norepinephrine; Entire Cohort (n = 267)) was 690 ± 414 pg/mL and the “Norepinephrine, Week 24 Median” value (plasma norepinephrine; Entire Cohort (n = 267)) was 586 pg/mL. The “Plasma norepinephrine, change … Mean ±SEM” value (plasma norepinephrine; Entire Cohort, listed as Met) was -36 pg/mL, the “Plasma norepinephrine, Week 4 Mean” value (plasma norepinephrine; Europe excluding Hungary) was 676 pg/mL and the “Plasma norepinephrine, Week 4 Median” value (plasma norepinephrine; Europe excluding Hungary) was 612 pg/mL. The “Plasma norepinephrine, change … Mean ±SEM” value (plasma norepinephrine; Europe excluding Hungary) was -18 pg/mL, the “Plasma norepinephrine, change … Median” value (plasma norepinephrine; Europe excluding Hungary) was -12 pg/mL and the “Norepinephrine, Baseline Mean ± SD” value (plasma norepinephrine; [3]) was 675 ± 250 pg/mL. For the same molecule, the “Norepinephrine, Baseline Median” value (plasma norepinephrine; [3]) was 592 pg/mL, the “Norepinephrine, Week 12 Mean ± SD” value (plasma norepinephrine; [3]) was 640 ± 283 pg/mL and the “Norepinephrine, Week 12 Median” value (plasma norepinephrine; [3]) was 614 pg/mL. For the same molecule, the “Norepinephrine, Week 24 Mean ± SD” value (plasma norepinephrine; [3]) was 904 ± 348 pg/mL, the “Norepinephrine, Week 24 Median” value (plasma norepinephrine; [3]) was 924 pg/mL and the “Plasma norepinephrine, Week 4 Mean” value (plasma norepinephrine; Hungary) was 530 pg/mL. For the same molecule, the “Plasma norepinephrine, Week 4 Median” value (plasma norepinephrine; Hungary) was 460 pg/mL, the “Plasma norepinephrine, change … Mean ±SEM” value (plasma norepinephrine; Hungary) was -35 pg/mL and the “Plasma norepinephrine, change … Median” value (plasma norepinephrine; Hungary) was -70 pg/mL. For the same molecule, the “Norepinephrine, Baseline Mean ± SD” value (plasma norepinephrine; Hungary (n = 33)) was 627 ± 258 pg/mL, the “Norepinephrine, Baseline Median” value (plasma norepinephrine; Hungary (n = 33)) was 571 pg/mL and the “Norepinephrine, Week 12 Mean ± SD” value (plasma norepinephrine; Hungary (n = 33)) was 716 ± 308 pg/mL. The “Norepinephrine, Week 12 Median” value (plasma norepinephrine; Hungary (n = 33)) was 590 pg/mL, the “Norepinephrine, Week 24 Mean ± SD” value (plasma norepinephrine; Hungary (n = 33)) was 716 ± 301 pg/mL and the “Norepinephrine, Week 24 Median” value (plasma norepinephrine; Hungary (n = 33)) was 668 pg/mL. For the same molecule, the “Plasma norepinephrine, Week 4 Mean” value (plasma norepinephrine; U.S.) was 616 pg/mL, the “Plasma norepinephrine, Week 4 Median” value (plasma norepinephrine; U.S.) was 556 pg/mL and the “Plasma norepinephrine, change … Mean ±SEM” value (plasma norepinephrine; U.S.) was -18 pg/mL. The “Plasma norepinephrine, change … Median” value (plasma norepinephrine; U.S.) was “+29 pg/ml”, the “Norepinephrine, Baseline Mean ± SD” value (plasma norepinephrine; U.S. (n = 127)) was 664 ± 386 pg/mL and the “Norepinephrine, Baseline Median” value (plasma norepinephrine; U.S. (n = 127)) was 599 pg/mL. For the same molecule, the “Norepinephrine, Week 12 Mean ± SD” value (plasma norepinephrine; U.S. (n = 127)) was 576 ± 246 pg/mL, the “Norepinephrine, Week 12 Median” value (plasma norepinephrine; U.S. (n = 127)) was 560 pg/mL and the “Norepinephrine, Week 24 Mean ± SD” value (plasma norepinephrine; U.S. (n = 127)) was 639 ± 472 pg/mL. The “Norepinephrine, Week 24 Median” value (plasma norepinephrine; U.S. (n = 127)) was 519 pg/mL, the “Within group NE change” value (plasma norepinephrine; Week 4, any of the regions) was “not associated with a within group NE change” and the “Norepinephrine, ΔWeek 12 Mean ± SEM” value (plasma norepinephrine; Canada (n = 59)) was -111 ± 57 pg/mL. For the same molecule, the “Norepinephrine, ΔWeek 12 Median” value (plasma norepinephrine; Canada (n = 59)) was -85 pg/mL, the “Norepinephrine, ΔWeek 24 Mean ± SEM” value (plasma norepinephrine; Canada (n = 59)) was 18 ± 75 pg/mL and the “Norepinephrine, ΔWeek 24 Median” value (plasma norepinephrine; Canada (n = 59)) was -10 pg/mL. For the same molecule, the “Norepinephrine, ΔWeek 12 Mean ± SEM” value (plasma norepinephrine; Entire Cohort (n = 267)) was -64 ± 30 pg/mL, the “Norepinephrine, ΔWeek 12 Median” value (plasma norepinephrine; Entire Cohort (n = 267)) was -57 pg/mL and the “Norepinephrine, ΔWeek 24 Mean ± SEM” value (plasma norepinephrine; Entire Cohort (n = 267)) was 2 ± 33 pg/mL. The “Norepinephrine, ΔWeek 24 Median” value (plasma norepinephrine; Entire Cohort (n = 267)) was -24 pg/mL, the “Norepinephrine, ΔWeek 12 Mean ± SEM” value (plasma norepinephrine; [3]) was -52 ± 65 pg/mL and the “Norepinephrine, ΔWeek 12 Median” value (plasma norepinephrine; [3]) was -76 pg/mL. For the same molecule, the “Norepinephrine, ΔWeek 24 Median” value (plasma norepinephrine; [3]) was 232 pg/mL, the “Norepinephrine, ΔWeek 12 Mean ± SEM” value (plasma norepinephrine; Hungary (n = 33)) was 144 ± 89 pg/mL and the “Norepinephrine, ΔWeek 12 Median” value (plasma norepinephrine; Hungary (n = 33)) was 37 pg/mL. The “Norepinephrine, ΔWeek 24 Mean ± SEM” value (plasma norepinephrine; Hungary (n = 33)) was 148 ± 336 pg/mL, the “Norepinephrine, ΔWeek 24 Median” value (plasma norepinephrine; Hungary (n = 33)) was -42 pg/mL and the “Norepinephrine, ΔWeek 12 Mean ± SEM” value (plasma norepinephrine; U.S. (n = 127)) was -100 ± 43 pg/mL. The “Norepinephrine, ΔWeek 12 Median” value (plasma norepinephrine; U.S. (n = 127)) was -66 pg/mL, the “Norepinephrine, ΔWeek 24 Mean ± SEM” value (plasma norepinephrine; U.S. (n = 127)) was -46 ± 40 pg/mL and the “Norepinephrine, ΔWeek 24 Median” value (plasma norepinephrine; U.S. (n = 127)) was -46 pg/mL. The “Reduction in NE” value (plasma norepinephrine; week 12, entire cohort) was 57 pg/mL.
